Assay [1] concerns the target T1, TRβ (Homo sapiens, UniProt P10828).
T1 construct: expressed in transfected cells; host or cells: HEK293
T1 sequence (P10828 217-461 limits assumed): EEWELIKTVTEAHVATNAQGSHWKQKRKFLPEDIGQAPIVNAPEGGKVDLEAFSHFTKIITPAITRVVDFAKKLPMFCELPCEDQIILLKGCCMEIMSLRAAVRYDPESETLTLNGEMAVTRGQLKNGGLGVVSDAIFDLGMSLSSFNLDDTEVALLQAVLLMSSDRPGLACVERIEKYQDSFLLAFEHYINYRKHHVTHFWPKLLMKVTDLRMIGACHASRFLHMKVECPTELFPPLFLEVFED
As to the kind of experiment: Thyroid-hormone reporter-gene assay, TRβ (Gal4 DBD hybrid, luciferase, HEK293). The format is cell-based. To be noted: for T3-SI, selectivity index (SI) calculated as EC50 (TRα)/EC50 (TRβ): TRβ over TRα selectivity from reporter-gene EC50 values; for EC50: reporter cells derived from HEK293, 24 hr incubation, luciferase readout.

Assay [2] concerns the target T2, TRα (Homo sapiens, UniProt P10827).
T2 construct: expressed in transfected cells; host or cells: HEK293
T2 sequence (P10827 128-410 isoform P10827-2 limits assumed): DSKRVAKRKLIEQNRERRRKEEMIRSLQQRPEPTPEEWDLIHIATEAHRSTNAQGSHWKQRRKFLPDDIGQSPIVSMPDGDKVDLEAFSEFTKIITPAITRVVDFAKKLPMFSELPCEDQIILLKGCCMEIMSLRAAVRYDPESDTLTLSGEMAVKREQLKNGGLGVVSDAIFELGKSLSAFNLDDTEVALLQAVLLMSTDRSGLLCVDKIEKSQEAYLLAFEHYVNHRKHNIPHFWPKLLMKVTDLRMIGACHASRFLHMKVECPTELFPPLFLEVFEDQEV
As to the kind of experiment: Thyroid-hormone reporter-gene assay, TRα (Gal4 DBD hybrid, luciferase, HEK293). It counts as cell-based. To be noted: reporter cells derived from HEK293, 24 hr incubation, luciferase readout.

The source of these data is patent publication US11667606B2, “Thyromimetics” (Autobahn Therapeutics, Inc., priority 2019, dated 2023).

A word on the EC50: it is the concentration at which the effect is half-maximal. Read a low EC50 as a more potent agent.

Each structure is given as a SMILES string.

Take `O=C(O)COc1cc(Cl)c(Cc2ccc(O)c(Cc3cccs3)c2)c(Cl)c1` [Compound 123, 2-(3,5-dichloro-4-(4-hydroxy-3-(thiophen-2-ylmethyl)benzyl)phenoxy) acetic Acid]: in assay [1], the “T3-SI, selectivity index (SI) calculated as EC50 (TRα)/EC50 (TRβ)” value (“T3-SI, selectivity index (SI) calculated” for short) is reported as “++ (3X < T3-SI ≤ 30X)” and the EC50 lay within 100 to 1000 nM. Moreover, in assay [2], the EC50 was above 1000 nM.
For `O=C(O)COc1cc(Cl)c(Cc2ccc(O)c(C(c3ccc(F)cc3)C(F)(F)F)c2)c(Cl)c1` (stereo not drawn) [Compound 125], in that order: “++ (3X < T3-SI ≤ 30X)”, 10 to 100 nM and 100 to 1000 nM.
The corresponding values for `O=C(O)COc1cc(Cl)c(Cc2ccc(O)c(C(CC(F)(F)F)c3ccc(F)cc3)c2)c(Cl)c1` (stereo not drawn) [Compound 127, 2-(3,5-dichloro-4-(4-hydroxy-3-(3,3,3-trifluoro-1-(4-fluorophenyl)propyl)benzyl)phenoxy)acetic Acid] are “++ (3X < T3-SI ≤ 30X)”, 10 to 100 nM and 100 to 1000 nM.
As for `COCC(c1ccc(F)cc1)c1cc(Cc2c(Cl)cc(OCC(=O)O)cc2Cl)ccc1O` (stereo not drawn) [Compound 129, 2-(3,5-dichloro-4-(3-(1-(4-fluorophenyl)-2-methoxyethyl)-4-hydroxybenzyl)phenoxy)acetic Acid], the “T3-SI, selectivity index (SI) calculated” value in assay [1] is on record as “+++ (T3-SI > 30X)”. Moreover, the values for the half-maximal effective concentration (EC50) in assay [1] and in assay [2] were 100 to 1000 nM and above 1000 nM, respectively.
For `Cc1cc(OCC(=O)O)cc(Br)c1Cc1ccc(O)c(C(C)c2ccc(F)cc2)c1` (stereo not drawn) [Compound 131, 2-(3-bromo-4-(3-(1-(4-fluorophenyl)ethyl)-4-hydroxybenzyl)-5-methylphenoxy)acetic Acid], in that order: “++ (3X < T3-SI ≤ 30X)”, below 10 nM and 10 to 100 nM.
For `Cc1cc(OCC(=O)O)cc(C)c1Cc1ccc(O)c(Cc2ccc(F)cc2)c1` [Compound 133, 2-(4-(3-(4-fluorobenzyl)-4-hydroxybenzyl)-3,5-dimethylphenoxy)acetic Acid], in that order: “++ (3X < T3-SI ≤ 30X)”, 10 to 100 nM and 100 to 1000 nM.
The corresponding values for `O=C(O)COc1cc(Cl)c(Cc2ccc(O)c(CCc3ccc(F)cc3)c2)c(Cl)c1` [Compound 135, 2-(3,5-dichloro-4-(3-(4-fluorophenethyl)-4-hydroxybenzyl)phenoxy)acetic Acid] are “++ (3X < T3-SI ≤ 30X)”, above 1000 nM and above 1000 nM.
In the case of `O=C(COc1cc(Cl)c(Cc2ccc(O)c(-c3cccc(OC(F)F)c3)c2)c(Cl)c1)N1CC1` [Compound 138, 1-(aziridin-1-yl)-2-(3,5-dichloro-4-((3′-(difluoromethoxy)-6-hydroxy-[1,1′-biphenyl]-3-yl)methyl)phenoxy)ethan-1-one], in assay [1], the “T3-SI, selectivity index (SI) calculated” value is on record as “++ (3X < T3-SI ≤ 30X)” and the EC50 fell in the range of 100 to 1000 nM. Further, the EC50 in assay [2] was above 1000 nM.
